Assays:
Format in all cases: biochemical
[1] = biological target: T1, α-glucosidase (Saccharomyces cerevisiae, Sigma G5003); test: p-nitrophenol release at […] nm, microplate; conditions: PNPG (20 μL of 5 mM), PBS pH 7.4, 37 °C, 5 min pre-incubation; error is SE; read-out: α-Glucosidase IC50 (SE) (mg/mL, μM†)
T1 construct: gene MAL12; commercial yeast enzyme preparation (Sigma)

[2] = test system: T1, α-glucosidase (Saccharomyces cerevisiae, Sigma G5003); test: p-nitrophenol release at […] nm, initial PNPG varied; conditions: no inhibitor; PBS pH 7.4, 37 °C; error is SE
[3] = biological target: T1, α-glucosidase (Saccharomyces cerevisiae, Sigma G5003); test: p-nitrophenol release at […] nm, progress curves at several PNPG and inhibitor concentrations; conditions: PNPG 1-15 mM, pH 7.4, 37 °C, unreliable: b44 prints another KI, Ki unit not printed (doses in μM)

| IC50 [1] | Km [2] | Ki ([3]; non-competitive in table, competitive in abstract) | Ki ([3]; competitive in table, non-competitive in abstract) | SMILES |
| --- | --- | --- | --- | --- |
| 159 µM | – | – | – | C[C@@H]1O[C@@H](OC[C@H]2O[C@@H](Oc3c(-c4ccc(O)cc4)oc4cc(O)cc(O)c4c3=O)[C@H](O)[C@@H](O)[C@@H]2O)[C@H](O)[C@H](O)[C@H]1O [compound 1, Nicotiflorin] |
| – | 986 µM | – | – | O=[N+]([O-])c1ccc(O[C@H]2O[C@H](CO)[C@@H](O)[C@H](O)[C@H]2O)cc1 [p-Nitrophenyl-α-D-glucopyranoside] |
| 16.9 µM | – | 12.29(1.58) | – | C[C@@H]1O[C@H](OC[C@H]2O[C@@H](Oc3c(-c4ccc(O)c(O)c4)oc4cc(O)cc(O)c4c3=O)[C@H](O[C@H]3O[C@@H](C)[C@H](O)[C@@H](O)[C@H]3O)[C@@H](O)[C@@H]2O)[C@H](O)[C@H](O)[C@H]1O [compound 5, quercetin-3-O-(2,6-di-O-β,β-rhamno-pyranosyl-β-glucopyranoside)] |
| 9.66 µM | – | – | 3.92 (1.48) | C[C@@H]1O[C@H](O[C@@H]2[C@@H](O)[C@H](O)[C@@H](COc3ccc(-c4oc5cc(O)cc(O)c5c(=O)c4O)cc3O)O[C@H]2O)[C@H](O)[C@H](O)[C@H]1O [compound 4, quercetin-4’-O-(2-O-β-rhamno-pyranosyl-6-β-glucopyranoside)] |

— paper PMC6930599, “Novel Flavonoid Glycosides of Quercetin from Leaves and Flowers of Gaiadendron punctatum G.Don. (Violeta de Campo), used by the Saraguro Community in Southern Ecuador, Inhibit α-Glucosidase Enzyme” (Molecules, 2019)
